Results reported in US11608331B2 (priority 2021, dated 2023).
Where two headings read alike, the source gives them in different places.

Key:
[1] = target: SARS-CoV-2 PLpro (Severe acute respiratory syndrome coronavirus 2, UniProt P0DTD1); experiment: Papain-like protease (PLpro) assay; format: biochemical; details: for IC50: dose response curve, read-out: IC50 against SARS-CoV-2 PLpro
[2] = system: SARS-CoV-2 strain NRC-03-nhCoV; experiment: microbe, parasite or virus in culture; format: cell-based
[3] = target: T1, human furin protease (Homo sapiens, UniProt P09958); experiment: Furin protease assay; format: biochemical
T1 construct: purchased BPS Bioscience 78040

[4] = in vitro; details: human
[5] = target: SARS-CoV-2 Mpro (Severe acute respiratory syndrome coronavirus 2, UniProt P0DTD1); experiment: Main protease (Mpro) assay, 3CL Protease assay kit; format: biochemical
[6] = read-out: IC50 against human furin protease

T1 sequence (P09958 108-794): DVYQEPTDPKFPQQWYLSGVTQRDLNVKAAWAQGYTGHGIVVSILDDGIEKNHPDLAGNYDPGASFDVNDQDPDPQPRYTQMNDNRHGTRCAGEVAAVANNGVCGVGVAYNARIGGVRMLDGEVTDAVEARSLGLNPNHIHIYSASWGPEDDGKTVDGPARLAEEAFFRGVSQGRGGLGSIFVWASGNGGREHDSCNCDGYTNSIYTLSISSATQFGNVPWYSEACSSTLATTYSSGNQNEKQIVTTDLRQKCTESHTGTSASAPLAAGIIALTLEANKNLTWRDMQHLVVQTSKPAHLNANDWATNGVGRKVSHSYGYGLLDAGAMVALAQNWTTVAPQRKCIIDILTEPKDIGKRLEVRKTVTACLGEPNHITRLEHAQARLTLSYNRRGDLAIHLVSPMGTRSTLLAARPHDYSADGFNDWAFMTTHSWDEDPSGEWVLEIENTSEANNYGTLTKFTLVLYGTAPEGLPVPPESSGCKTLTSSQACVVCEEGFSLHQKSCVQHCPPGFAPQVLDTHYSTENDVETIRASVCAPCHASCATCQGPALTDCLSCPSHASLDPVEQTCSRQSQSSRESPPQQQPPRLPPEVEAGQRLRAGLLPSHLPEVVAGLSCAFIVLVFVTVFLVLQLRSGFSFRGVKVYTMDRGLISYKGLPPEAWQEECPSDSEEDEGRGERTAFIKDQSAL

SMILES	IC50 [1]	inhibition activity against SARS-CoV-2 PLpro ([1]; screening, mean±SEM of 3 replicas)	IC50 ([2]; Severe acute respiratory syndrome coronavirus 2, Vero C1008, 72 h, read-out: IC50 inhibition activity against SARS-CoV-2)	IC50 [3, 6]	IC50 [4]	inhibition at 100 µg/mL ([5]; read-out: inhibition activity against Mpro enzyme (inhibition percentage))	IC50 ([2]; Severe acute respiratory syndrome coronavirus 2, Vero C1008, compound 13M, FIG. 10A, read-out: antiviral activity in vitro IC50)	IC50 [3]	IC50 ([5]; compound 13M, FIG. 10B-10C, read-out: IC50 against Mpro enzyme (converted))	IC50 ([2]; Severe acute respiratory syndrome coronavirus 2, Vero C1008, Vero-E6 cells, strain NRC-03-nhCoV, 72 h, read-out: IC50 inhibition activity against SARS-CoV-2)	IC50 at 24 h [4]
COc1cc(C(NC2=NC(=O)C(CC(=O)Nc3ccc(C(=O)O)cc3)S2)c2c(O)[nH]c(=O)[nH]c2=O)ccc1O (stereo not shown) [Compound 7]	85 nM	56.4%	770 nM	290 nM	1670 nM	31 ± 2%					
N=C(N/N=C/c1ccncc1)c1nonc1NCNc1nonc1C(=N)N/N=C/c1ccncc1 [Compound 13M]							~8 µg/mL	86200 nM	13400 nM		
N=C(N/N=C/c1ccccc1O)c1nonc1NCNc1nonc1C(=N)N/N=C/c1ccccc1O [Compound 13]	63 nM			290 nM						110 nM	410 nM
